The values that follow come from patent US9238656B2, “Imidazo[4,5-b]pyridine derivatives as ALK and JAK modulators for the treatment of proliferative disorders” (priority 2012, dated 2016).

For assay [1], the target named is baculovirus-expressed JAK2 kinase (Homo sapiens, UniProt O60674). In words: biochemical. The note with it: read-out: JAK2 Potency. As for the experimental part: Compounds were tested for their ability to inhibit the kinase activity of baculovirus-expressed JAK2 kinase using the time-resolved fluorescence (TRF) detection system. […] The plates were coated with 100 μL/well of 10 μg/mL Neutravidin (Pierce #31000, Rockford, Ill.) in TBS at 37° C. for 2 h, followed by 100 μL/well of 1 μg/mL 15-mer peptide substrate (biotinyl-amino-hexanoyl-[…]-amide, Infinity Biotech Research and Resource, Aston, Pa.) at 37° C. for 1 h. […] Enzyme (15 ng/mL JAK2) was added and the reaction was allowed to proceed at room temperature for 20 min. […] Inhibition data were analyzed using ActivityBase (IDBS, Guilford, UK). IC50 values were calculated by plotting percent inhibition versus log10 of the concentration of compound and fitting to the nonlinear regression sigmoidal dose-response (variable slope) equation in XLFit (IDBS, Guilford, UK).

For assay [2], the target named is baculovirus-expressed ALK (Homo sapiens, UniProt Q9UM73). Description: ALK kinase inhibition, TRF/ELISA. It counts as biochemical. The following applies: read-out: ALK Potency. As for the experimental part: Briefly, each 96-well plate was coated with 100 μL/well of 10 μg/mL substrate (GST-PLC-γ) in Tris-buffered saline (TBS). […] The reaction was initiated by adding enzyme (30 ng/mL ALK) and was allowed to proceed at 37° C. for 15 minutes. Detection of the phosphorylated product was performed by adding 100 μL/well of Eu-N1 labeled PT66 antibody (Perkin Elmer #AD0041). […] Data analysis was performed using ActivityBase (IDBS, Guilford, UK). IC50 values were calculated by plotting percent inhibition versus log10 of the concentration of compound and fitting to the nonlinear regression sigmoidal dose-response (variable slope) equation in XLFit (IDBS, Guilford, UK).

Structures can show the parent of a compound that is named as a salt. Where two headings read alike, the source gives them in different places. A value given as a limit tells only on which side of the number the result lay.

baculovirus-expressed ALK, sequence (Q9UM73 19-1620): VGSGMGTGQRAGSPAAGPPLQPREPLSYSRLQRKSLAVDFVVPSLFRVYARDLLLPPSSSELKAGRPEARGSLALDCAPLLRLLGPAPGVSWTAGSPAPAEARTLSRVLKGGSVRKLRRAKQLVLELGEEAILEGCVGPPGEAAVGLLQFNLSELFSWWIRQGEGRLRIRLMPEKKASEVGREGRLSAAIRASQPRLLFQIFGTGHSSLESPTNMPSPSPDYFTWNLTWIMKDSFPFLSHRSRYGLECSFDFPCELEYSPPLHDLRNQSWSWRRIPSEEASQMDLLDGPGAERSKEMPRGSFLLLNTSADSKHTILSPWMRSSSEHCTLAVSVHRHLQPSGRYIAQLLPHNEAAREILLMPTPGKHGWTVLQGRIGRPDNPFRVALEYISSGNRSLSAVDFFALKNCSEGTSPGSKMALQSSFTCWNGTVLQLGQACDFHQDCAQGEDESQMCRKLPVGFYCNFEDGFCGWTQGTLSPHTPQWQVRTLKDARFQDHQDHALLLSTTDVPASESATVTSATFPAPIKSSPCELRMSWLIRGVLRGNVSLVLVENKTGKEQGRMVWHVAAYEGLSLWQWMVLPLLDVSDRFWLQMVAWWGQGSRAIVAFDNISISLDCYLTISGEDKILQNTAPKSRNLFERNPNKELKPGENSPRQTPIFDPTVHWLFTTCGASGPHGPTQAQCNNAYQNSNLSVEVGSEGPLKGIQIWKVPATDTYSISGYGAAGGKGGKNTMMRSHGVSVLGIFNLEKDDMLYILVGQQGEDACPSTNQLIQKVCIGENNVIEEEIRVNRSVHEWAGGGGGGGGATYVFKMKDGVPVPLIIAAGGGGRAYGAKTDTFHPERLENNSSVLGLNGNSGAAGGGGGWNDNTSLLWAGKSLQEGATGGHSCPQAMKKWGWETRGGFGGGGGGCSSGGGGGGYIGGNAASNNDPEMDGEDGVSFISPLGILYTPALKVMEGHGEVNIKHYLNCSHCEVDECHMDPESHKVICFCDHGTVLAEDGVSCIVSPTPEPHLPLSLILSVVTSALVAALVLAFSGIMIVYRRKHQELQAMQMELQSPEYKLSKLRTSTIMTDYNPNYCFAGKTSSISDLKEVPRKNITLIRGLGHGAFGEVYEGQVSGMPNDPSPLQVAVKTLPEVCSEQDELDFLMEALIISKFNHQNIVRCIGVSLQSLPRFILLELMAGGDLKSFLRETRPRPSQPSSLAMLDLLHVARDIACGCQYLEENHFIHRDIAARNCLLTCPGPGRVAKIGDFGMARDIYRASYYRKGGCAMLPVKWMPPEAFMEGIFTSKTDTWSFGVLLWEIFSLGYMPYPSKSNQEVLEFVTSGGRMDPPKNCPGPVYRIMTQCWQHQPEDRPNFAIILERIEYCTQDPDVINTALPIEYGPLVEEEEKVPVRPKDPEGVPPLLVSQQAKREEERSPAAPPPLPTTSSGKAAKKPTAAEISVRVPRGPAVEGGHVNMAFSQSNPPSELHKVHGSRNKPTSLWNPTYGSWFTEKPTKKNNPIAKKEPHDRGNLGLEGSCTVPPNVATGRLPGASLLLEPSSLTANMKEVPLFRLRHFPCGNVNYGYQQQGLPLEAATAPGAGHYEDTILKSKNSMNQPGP
baculovirus-expressed JAK2 kinase, sequence (O60674 whole entry): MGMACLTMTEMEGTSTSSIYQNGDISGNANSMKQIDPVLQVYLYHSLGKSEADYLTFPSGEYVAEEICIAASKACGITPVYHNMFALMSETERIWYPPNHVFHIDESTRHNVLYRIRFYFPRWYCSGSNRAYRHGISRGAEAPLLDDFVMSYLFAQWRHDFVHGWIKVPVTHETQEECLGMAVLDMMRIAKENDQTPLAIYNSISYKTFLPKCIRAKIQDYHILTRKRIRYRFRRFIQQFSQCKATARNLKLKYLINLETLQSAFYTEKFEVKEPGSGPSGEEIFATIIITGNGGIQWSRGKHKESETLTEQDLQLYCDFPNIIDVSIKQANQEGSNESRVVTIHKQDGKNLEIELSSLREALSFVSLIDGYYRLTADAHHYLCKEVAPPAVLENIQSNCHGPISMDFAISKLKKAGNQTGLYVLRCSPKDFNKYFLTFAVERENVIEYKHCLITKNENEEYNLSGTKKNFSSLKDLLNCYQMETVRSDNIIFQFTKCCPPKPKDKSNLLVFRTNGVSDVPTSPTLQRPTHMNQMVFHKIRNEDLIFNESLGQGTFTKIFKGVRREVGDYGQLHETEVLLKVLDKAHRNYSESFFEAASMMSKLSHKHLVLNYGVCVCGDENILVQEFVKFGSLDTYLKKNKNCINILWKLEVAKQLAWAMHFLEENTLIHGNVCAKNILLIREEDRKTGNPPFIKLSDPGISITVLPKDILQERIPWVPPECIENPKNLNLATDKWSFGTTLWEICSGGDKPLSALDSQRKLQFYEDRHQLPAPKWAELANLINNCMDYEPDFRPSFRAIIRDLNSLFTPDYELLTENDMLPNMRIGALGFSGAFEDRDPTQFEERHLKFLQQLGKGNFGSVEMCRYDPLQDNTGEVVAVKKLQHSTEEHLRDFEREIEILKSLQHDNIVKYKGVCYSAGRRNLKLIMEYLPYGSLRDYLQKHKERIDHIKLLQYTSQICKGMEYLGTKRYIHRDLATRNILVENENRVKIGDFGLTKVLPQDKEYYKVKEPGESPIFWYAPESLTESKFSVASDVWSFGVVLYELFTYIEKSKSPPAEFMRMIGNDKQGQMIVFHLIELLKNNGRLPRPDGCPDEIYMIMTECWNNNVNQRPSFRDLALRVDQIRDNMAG

Take `COc1cc(N2CCC(N3CCN(C)CC3)CC2)ccc1-c1nc2c(N[C@H]3[C@@H](C(N)=O)[C@@H]4C=C[C@H]3C4)c(Cl)cnc2[nH]1` [Compound XXIII, (1S,2S,3R,4R)-3-(6-Chloro-2-{2-methoxy-4-[4-(4-methyl-piperazin-1-yl)-piperidin-1-yl]-phenyl}-3H-imidazo[4,5-b]pyridin-7-ylamino)-bicyclo[2.2.1]hept-5-ene-2-carboxylic acid amide]: in assay [1] (0.2 μM ATP), the IC50 is under 100 nM. For `CN(C)C(=O)[C@@H]1[C@H](Nc2c(Cl)cnc3[nH]c(-c4sc(N5CCCC5)nc4Cl)nc23)[C@H]2C=C[C@@H]1C2` [Compound CLXIV, (1S,2S,3R,4R)-3-[6-Chloro-2-(4-chloro-2-pyrrolidin-1-yl-thiazol-5-yl)-3H-imidazo[4,5-b]pyridin-7-ylamino]-bicyclo[2.2.1]hept-5-ene-2-carboxylic acid dimethylamide], the IC50 in assay [2] and in assay [1] (0.2 μM ATP) was under 100 nM throughout. Turning to `COc1cc(OC(F)(F)F)ccc1-c1nc2c(N[C@H]3[C@@H](C(N)=O)[C@@H]4C=C[C@H]3C4)c(Cl)cnc2[nH]1` [Compound XVIII, (1S,2S,3R,4R)-3-[6-Chloro-2-(2-methoxy-4-trifluoromethoxy-phenyl)-3H-imidazo[4,5-b]pyridine-7-ylamino]-bicyclo[2.2.1]hept-5-ene-2-carboxylic acid amide], the IC50 in assay [2] was under 100 nM; in assay [1] (0.2 μM ATP), 100 to 1000 nM. For `CN1CCN(CCOc2ccc(-c3nc4c(N[C@H]5[C@@H](C(N)=O)[C@@H]6C=C[C@H]5C6)c(Cl)cnc4[nH]3)cc2)CC1` [Compound CCL, (1S,2S,3R,4R)-3-(6-chloro-2-(4-(2-(4-methylpiperazin-1-yl)ethoxy)phenyl)-3H-imidazo[4,5-b]pyridin-7-ylamino)bicyclo[2.2.1]hept-5-ene-2-carboxamide], in that order: under 100 nM and under 100 nM. Turning to `NC(=O)[C@@H]1[C@H](Nc2c(Cl)cnc3[nH]c(-c4ccc(F)cc4)nc23)[C@H]2C=C[C@@H]1C2` [Compound CXXIX, (1S,2S,3R,4R)-3-[6-Chloro-2-(4-fluoro-phenyl)-3H-imidazo[4,5-b]pyridin-7-ylamino]-bicyclo[2.2.1]hept-5-ene-2-carboxylic acid amide], the IC50 in assay [2] is 100 to 1000 nM; in assay [1] (0.2 μM ATP) it was under 100 nM. As for `CC(C)(C)OC(=O)N1CCCC(c2nc3c(N[C@H]4[C@@H](C(N)=O)[C@@H]5C=C[C@H]4C5)c(Cl)cnc3[nH]2)C1` (stereo partly drawn) [Compound XI, 3-[7-((1R,2R,3S,4S)-3-Carbamoyl-bicyclo[2.2.1]hept-5-en-2-ylamino)-6-chloro-3H-imidazo[4,5-b]pyridine-2-yl]-piperidine-1-carboxylic acid tert-butyl ester], the IC50 in assay [2] and in assay [1] (0.2 μM ATP) was over 10000 nM in each case. Take `CN1CCN(C(=O)COc2ccc(-c3nc4c(N[C@H]5[C@@H](C(N)=O)[C@@H]6C=C[C@H]5C6)c(Cl)cnc4[nH]3)cc2)CC1` [Compound CCXLIV, (1S,2S,3R,4R)-3-(6-chloro-2-(4-(2-(4-methylpiperazin-1-yl)-2-oxoethoxy)phenyl)-3H-imidazo[4,5-b]pyridin-7-ylamino)bicyclo[2.2.1]hept-5-ene-2-carboxamide]: the IC50 in assay [2] and in assay [1] (0.2 μM ATP) was under 100 nM throughout.

As to `CN1CCC(Oc2cccc(-c3nc4c(N[C@H]5[C@@H](C(N)=O)[C@@H]6C=C[C@H]5C6)c(Cl)cnc4[nH]3)c2)CC1` [Compound CCXLVIII, (1S,2S,3R,4R)-3-(6-chloro-2-(3-(1-methylpiperidin-4-yloxy)phenyl)-3H-imidazo[4,5-b]pyridin-7-ylamino)bicyclo[2.2.1]hept-5-ene-2-carboxamide], the IC50 in assay [2] and in assay [1] (0.2 μM ATP) was under 100 nM throughout. Turning to `COc1cc(N2CCN(C)CC2)ccc1-c1nc2c(N[C@H]3[C@@H](C(N)=O)[C@@H]4C=C[C@H]3C4)c(Cl)cnc2[nH]1` [Compound XXI, (1S,2S,3R,4R)-3-{6-Chloro-2-[2-methoxy-4-(4-methyl-piperazin-1-yl)-phenyl]-3H-imidazo[4,5-b]pyridin-7-ylamino}-bicyclo[2.2.1]hept-5-ene-2-carboxylic acid amide trifluoroacetic acid salt], in assay [1] (0.2 μM ATP), the IC50 was under 100 nM. On to `COc1cc(N2CCN(C)CC2)ccc1-c1nc2c(N[C@@H]3[C@H](C(N)=O)[C@H]4C=C[C@@H]3C4)c(Cl)cnc2[nH]1` [Compound XXVIII, (1R,2R,3S,4S)-3-{6-Chloro-2-[2-methoxy-4-(4-methyl-piperazin-1-yl)-phenyl]-3H-imidazo[4,5-b]pyridin-7-ylamino}-bicyclo[2.2.1]hept-5-ene-2-carboxylic acid amide], for which the IC50 in assay [1] (0.2 μM ATP) lay in the range of 100 to 1000 nM. Consider “4-{2-[7-((1R,2R,3S,4S)-3-Carbamoyl-bicyclo[2.2.1]hept-5-en-2-ylamino)-6-chloro-3H-imidazo[4,5-b]pyridine-2-yl}-5-methoxy-phenyl]-piperidinej-1-carboxylic acid tert-butyl ester [Compound XXIX]”, for which the IC50 in assay [1] was 1000 to 10000 nM.

On to `CN1CCN(c2ccc(-c3nc4c(N[C@H]5[C@@H](C(N)=O)[C@@H]6C=C[C@H]5C6)c(Cl)cnc4[nH]3)cc2)CC1` [Compound X, (1S,2S,3R,4R)-3-{6-Chloro-2-[4-(4-methyl-piperazin-1-yl)-phenyl]-3H-imidazo[4,5-b]pyridine-7-ylamino}-bicyclo[2.2.1]hept-5-ene-2-carboxylic acid amide trifluoroacetic acid salt], for which the IC50 in assay [1] (0.2 μM ATP) was under 100 nM. `NC(=O)[C@H]1[C@@H](Nc2c(Cl)cnc3[nH]c(-c4cccc(N5CCOCC5)c4)nc23)[C@@H]2C=C[C@H]1C2` [Compound XXV, (1R,2R,3S,4S)-3-[6-Chloro-2-(3-morpholin-4-yl-phenyl)-3H-imidazo[4,5-b]pyridine-7-ylamino]-bicyclo[2.2.1]hept-5-ene-2-carboxylic acid amide]: the IC50 in assay [1] (0.2 μM ATP) lay within 100 to 1000 nM.

With `NC(=O)[C@@H]1[C@H](Nc2c(Cl)cnc3[nH]c(-c4cccc(N5CCOCC5)c4)nc23)[C@H]2C=C[C@@H]1C2` [Compound VII, (1S,2S,3R,4R)-3-[6-Chloro-2-(3-morpholin-4-yl-phenyl)-3H-imidazo[4,5-b]pyridine-7-ylamino]-bicyclo[2.2.1]hept-5-ene-2-carboxylic acid amide], the IC50 in assay [1] (0.2 μM ATP) was under 100 nM. Turning to `NC(=O)[C@@H]1[C@H](Nc2c(Cl)cnc3[nH]c(-c4cnn(C5CCNCC5)c4)nc23)[C@H]2C=C[C@@H]1C2` [Compound LVII, (1S,2S,3R,4R)-3-[6-Chloro-2-(1-piperidin-4-yl-1H-pyrazol-4-yl)-3H-imidazo[4,5-b]pyridine-7-ylamino]-bicyclo[2.2.1]hept-5-ene-2-carboxylic acid amide], the IC50 in assay [1] (0.2 μM ATP) is under 100 nM. With `NC(=O)[C@@H]1[C@H](Nc2c(Cl)cnc3[nH]c(-c4ccc(N5CCOCC5)cc4)nc23)[C@H]2C=C[C@@H]1C2` [Compound IV, (1S,2S,3R,4R)-3-[6-Chloro-2-(4-morpholin-4-yl-phenyl)-3H-imidazo[4,5-b]pyridine-7-ylamino]-bicyclo[2.2.1]hept-5-ene-2-carboxylic acid amide], the IC50 in assay [1] (0.2 μM ATP) is under 100 nM. `COc1cccc(-c2nc3c(N[C@H]4[C@@H](C(N)=O)[C@@H]5C=C[C@H]4C5)c(Cl)cnc3[nH]2)c1` [Compound V, (1S,2S,3R,4R)-3-[6-Chloro-2-(3-methoxy-phenyl)-3H-imidazo[4,5-b]pyridin-7-ylamino]-bicyclo[2.2.1]hept-5-ene-2-carboxylic acid amide]: the IC50 in assay [1] (0.2 μM ATP) was under 100 nM.

Take `COc1ccccc1-c1nc2c(N[C@H]3[C@@H](C(N)=O)[C@@H]4C=C[C@H]3C4)c(Cl)cnc2[nH]1` [Compound IX, (1S,2S,3R,4R)-3-[6-Chloro-2-(2-methoxy-phenyl)-3H-imidazo[4,5-b]pyridine-7-ylamino]-bicyclo[2.2.1]hept-5-ene-2-carboxylic acid amide]: the IC50 in assay [1] (0.2 μM ATP) was under 100 nM. Consider `COc1ccc(-c2nc3c(N[C@H]4[C@@H](C(N)=O)[C@@H]5C=C[C@H]4C5)c(Cl)cnc3[nH]2)cc1` [Compound VI, (1S,2S,3R,4R)-3-[6-Chloro-2-(4-methoxy-phenyl)-3H-imidazo[4,5-b]pyridine-7-ylamino]-bicyclo[2.2.1]hept-5-ene-2-carboxylic acid amide], for which, in assay [1] (0.2 μM ATP), the IC50 was under 100 nM. On the same count and under the same terms, for `Cn1cc(-c2nc3c(N[C@H]4[C@@H](C(N)=O)[C@@H]5C=C[C@H]4C5)c(Cl)cnc3[nH]2)cn1` [Compound VIII, (1S,2S,3R,4R)-3-[6-Chloro-2-(1-methyl-1H-pyrazol-4-yl)-3H-imidazo[4,5-b]pyridine-7-ylamino]-bicyclo[2.2.1]hept-5-ene-2-carboxylic acid amide] the value was under 100 nM; for `CN1CCN(c2ccc(-c3nc4c(N[C@@H]5[C@H](C(N)=O)[C@H]6C=C[C@@H]5C6)c(Cl)cnc4[nH]3)cc2)CC1` [Compound XXVI, (1R,2R,3S,4S)-3-{6-Chloro-2-[4-(4-methyl-piperazin-1-yl)-phenyl]-3H-imidazo[4,5-b]pyridine-7-ylamino}-bicyclo[2.2.1]hept-5-ene-2-carboxylic acid amide], under 100 nM.
